Assay results from article PMC7531004, “Discovery of gramicidin A analogues with altered activities by multidimensional screening of a one-bead-one-compound library” (Nature Communications, 2020).
Values joined by “and” are separate entries in the source; they are usually repeats but may differ in a detail not shown here. Equal values may be shown once. Read-outs that look alike come from different tables or passages of the source. Where a SMILES comes first, the peptide text is derived from it. [ ]: non-standard residue; d: D form. The star is where a group is joined. NHCH2CH2OH = OCCN*; For = O=C*

Legend:
[1] = tested on: Enterococcus faecalis JCM5803
Summary of the method: (§1)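 Growth inhibition was scored after 18–24 h at 37 °C in cation-adjusted Mueller Hinton broth, with laked horse blood (5%) included for streptococcal strains. Inocula were standardized by OD 625 and diluted to about 5 × 10^4 CFU/well.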

[2] = tested on: Listeria monocytogenes 10403S
Summary of the method: as §1

[3] = tested on: Streptococcus pyogenes SSI-9
Summary of the method: as §1

[4] = tested on: Streptococcus agalactiae JCM5671
Summary of the method: as §1

[5] = tested on: Streptococcus pneumoniae NBRC 102642
Summary of the method: as §1

rabbit red blood cells = settings: red cells of rabbit, 2 h
[6] = tested on: MSSA1 (methicillin-susceptible Staphylococcus aureus); format: cell-based
[7] = H+/Na+ transport assay of purified peptides; settings: for Supplementary Figure 5 dose-response value (H+/Na+ transport): three replicate lines

CC(C)C[C@@H](NC(=O)[C@H](C)NC(=O)CNC(=O)[C@@H](NC=O)C(C)C)C(=O)N[C@@H](C)C(=O)N[C@@H](C(=O)N[C@H](C(=O)N[C@@H](C(=O)N[C@@H](Cc1c[nH]c2ccccc12)C(=O)N[C@H](CC(C)C)C(=O)N[C@@H](Cc1c[nH]c2ccccc12)C(=O)N[C@H](CC(C)C)C(=O)N[C@@H](Cc1c[nH]c2ccccc12)C(=O)N[C@H](CC(C)C)C(=O)N[C@@H](Cc1c[nH]c2ccccc12)C(=O)NCCO)C(C)C)C(C)C)C(C)C [compound 1, Gramicidin A] (For-VGA[dL]A[dV]V[dV]W[dL]W[dL]W[dL]W-NHCH2CH2OH)
antibacterial activity/MIC ([1]; E. faecalis): 0.5 mg/L
Antibacterial activity MIC ([1]; JCM5803): 0.27 µM
Antibacterial activity MIC ([2]; 10403S): 4.3 µM
antibacterial activity/MIC ([2]; L. monocytogenes): 8 mg/L
antibacterial activity/MIC ([3]; S. pyogenes): 0.063 mg/L
Antibacterial activity MIC ([3]; SSI-9): 0.033 µM
Antibacterial activity MIC ([4]; JCM5671): 1.1 µM
antibacterial activity/MIC ([4]; S. agalactiae): 2 mg/L
Antibacterial activity MIC ([5]; NBRC 102642): 0.0083 µM
antibacterial activity/MIC ([5]; S. pneumoniae): 0.016 mg/L
Hemolytic activity HC10 (concentration causing 10% hemolysis) (rabbit red blood cells): 160 nM
antibacterial activity/MIC [6]: 32 mg/L
IC50 (IC50, mammalian cytotoxicity assay): 4.86 nM
IC50 (cytotoxicity against P388 cells/IC50): 5.81 ± 0.99 nM
EC55.2 value (threshold concentration of one-point ion transport assay) ([7]; H+/Na+ transport): 5.9 nM
Supplementary Figure 5 dose-response value (H+/Na+ transport) ([7]; concentration 0.000512 nM): 0.1393 and -1.026 and 0.8168
Supplementary Figure 5 dose-response value (H+/Na+ transport) ([7]; concentration 0.00256 nM): 2.399 and 0.2926 and 2.304
Supplementary Figure 5 dose-response value (H+/Na+ transport) ([7]; concentration 0.0128 nM): 3.982 and 3.019 and 2.7829
Supplementary Figure 5 dose-response value (H+/Na+ transport) ([7]; concentration 0.064 nM): 7.464 and 5.495 and 5.604
Supplementary Figure 5 dose-response value (H+/Na+ transport) ([7]; concentration 0.32 nM): 9.988 and 12.6133 and 15.027
Supplementary Figure 5 dose-response value (H+/Na+ transport) ([7]; concentration 1.6 nM): 25.261 and 17.8892 and 24.5099
Supplementary Figure 5 dose-response value (H+/Na+ transport) ([7]; concentration 8 nM): 43.5648 and 41.9563 and 41.0019
Supplementary Figure 5 dose-response value (H+/Na+ transport) ([7]; concentration 40 nM): 66.4966 and 62.6758 and 58.9306
Supplementary Figure 5 dose-response value (H+/Na+ transport) ([7]; concentration 200 nM): 70.2683 and 64.7328 and 64.4099
Supplementary Figure 5 dose-response value (H+/Na+ transport) ([7]; concentration 1000 nM): 68.3656 and 69.2628 and 73.7672
Supplementary Figure 5 dose-response value (H+/Na+ transport) ([7]; concentration 5000 nM): 72.2926 and 68.3983 and 71.8941
EC50 ([7]; read-out: EC50, H+/Na+ transport assay, 1st experiment): 4.66 nM
EC50 ([7]; read-out: EC50, H+/Na+ transport assay, 2nd experiment): 3.91 nM
EC50 ([7]; read-out: EC50, H+/Na+ transport assay, 3rd experiment): 4.81 nM
EC50 ([7]; read-out: H+/Na+ transport activity EC50, EYPC/EYPG (19:1) LUVs): 4.5 nM
EC50 ([7]; read-out: H+/Na+ transport activity/EC50, mean ± SD of three independent experiments): 4.46 ± 0.48 nM
